What was measured:
[1] = target: T1, human recombinant BTK C481S protein (Homo sapiens, UniProt Q06187, C481S); assay: BTK C481S activity inhibition assay (HTRF kinase assay); format: biochemical; conditions: 35 μM ATP
T1 construct: made in house
Procedure: In vitro kinase assay was used to evaluate the effects of compounds of the present invention on BTK C481S activity (Table 1).
By using the homogeneous time-resolved fluorescence (HTRF) kinase detection kit (Cisbio, catalog number 62TK0PEC), the enzymatic activity of BTK C481S is determined by detecting the phosphorylation level of the substrate in the kinase reaction. […]
(§1) Add 4 μL test compound solution and 2 μL kinase reaction solution to a 384-well detection plate (Corning, catalog number 3674), mix well and incubate at room temperature for 15 minutes; add 4 μL substrate reaction solution and incubate for 50 minutes; add 10 μL detection buffer, mix well and stand for 60 minutes; detect signal at 620 nm and 665 nm using an Envision plate reader (Perkin Elmer). The signal value (absorbance at 665 nm/absorbance at 620 nm) is positively correlated with the degree of phosphorylation of the substrate, thereby detecting the kinase activity of BTK C481S. […] The inhibition curve is plotted and the corresponding IC50 value of the test compound is calculated using XLfit software (ID Business Solutions Ltd., UK).

[2] = target: T2, human-derived recombinant BTK protein (Homo sapiens, UniProt Q06187); assay: BTK activity inhibition assay (HTRF kinase assay); format: biochemical; conditions: 40 μM ATP
T2 construct: purchased Carna Biosciences 08-180
T2 sequence (Q06187 whole entry): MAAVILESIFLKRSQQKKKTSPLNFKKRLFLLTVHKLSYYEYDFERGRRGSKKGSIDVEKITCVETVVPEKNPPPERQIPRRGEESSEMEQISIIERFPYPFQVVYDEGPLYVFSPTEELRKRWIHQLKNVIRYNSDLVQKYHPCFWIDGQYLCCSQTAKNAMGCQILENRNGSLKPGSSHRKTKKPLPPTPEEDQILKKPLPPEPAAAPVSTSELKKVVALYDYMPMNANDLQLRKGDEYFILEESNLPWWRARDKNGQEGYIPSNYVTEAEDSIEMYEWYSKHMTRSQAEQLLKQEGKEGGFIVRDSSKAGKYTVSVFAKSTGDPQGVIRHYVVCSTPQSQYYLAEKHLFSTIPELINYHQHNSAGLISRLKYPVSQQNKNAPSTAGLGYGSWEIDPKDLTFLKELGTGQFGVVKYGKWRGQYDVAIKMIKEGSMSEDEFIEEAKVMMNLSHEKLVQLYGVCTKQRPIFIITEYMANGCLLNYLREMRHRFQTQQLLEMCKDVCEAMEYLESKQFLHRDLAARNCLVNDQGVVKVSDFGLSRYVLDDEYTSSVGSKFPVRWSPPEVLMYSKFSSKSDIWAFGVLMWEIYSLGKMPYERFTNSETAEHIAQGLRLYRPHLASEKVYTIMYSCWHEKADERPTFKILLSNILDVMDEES
Procedure: In vitro kinase assay was used to evaluate the effects of compounds of the present invention on BTK activity (Table 1).
By using the homogeneous time-resolved fluorescence (HTRF) kinase detection kit (Cisbio, catalog number 62TK0PEC), the enzymatic activity of BTK is determined by detecting the phosphorylation level of the substrate in the kinase reaction. […]
as §1, with “BTK.” for “BTK C481S.”

[3] = Brain penetration activity test in rats; format: in vivo; conditions: for Brain penetration (result in words): male Sprague Dawley rats, oral 5 mg/kg; for Kp at 8 h: male, Sprague Dawley, rat, brain tissue homogenate / plasma, po, 5 mg/kg, AUCbrain/AUCplasma, samples at 1, 2, 4 and 8 hours
Procedure: “CSF/plasma ratio (Kp, CSF)” refers to the ratio of a compound concentration in cerebrospinal fluid (CSF) vs. in plasma. The ability of a compound to cross blood-brain barrier (BBB) is assessed by measuring its concentrations in CSF and plasma in rodents, and determining the ratio (Kp, CSF).
Compound A or B in a 0.5 mg/mL solution containing 5% N,N-dimethylacetamide+10% solutol+85% saline was orally administered to twelve male Sprague Dawley rats at a dose of 5 mg/kg. Samples of plasma, brain tissue homogenate (for measuring Kp, brain) and cerebrospinal fluid (for measuring Kp, CSF) were collected at 1, 2, 4 and 8 hours after administration (from three animals at each time point).
The concentrations of the compound in plasma, brain tissue homogenate, and CSF were quantified by LC-MS/MS using an API-4500 mass spectrometer, respectively. The limit of quantification (LOQ) of analysis was 1 ng/mL. The pharmacokinetic (PK) parameters were calculated by the non-compartmental method using WinNonlin. Each of Kp, brain and Kp, CSF was calculated as AUCbrain/AUCplasma and AUCCSF/AUCplasma, respectively.

T1 sequence (Q06187 whole entry C481S): as the sequence (Q06187 whole entry) above, with C481S counted along it

IC50 [1] [nM]	IC50 [2] [nM]	Brain penetration (result in words) [3]	Kp at 8 h [3]	Compound
1.2	1	non-brain penetrants	0.0315	COc1ccc(F)cc1C(=O)NCc1ccc(-c2nc(C34CCC(C(=O)N5CCOCC5)(CC3)CC4)n3ncnc(N)c23)cc1 [Compound B, N-(4-(4-amino-7-(4-(morpholine-4-carbonyl)bicyclo[2.2.2]octan-1-yl)imidazo[5,1-f][1,2,4]triazin-5-yl)benzyl)-5-fluoro-2-methoxybenzamide]
1.3	0.7	non-brain penetrants	0.0355	COc1ccc(F)cc1C(=O)NCc1ccc(-c2nc(C34CCC(C(=O)O)(CC3)CC4)n3ncnc(N)c23)cc1 [Compound A, 4-(4-amino-5-(4-((5-fluoro-2-methoxybenzamido)methyl)phenyl)imidazo[5,1-f][1,2,4]triazin-7-yl)bicyclo[2.2.2]octane-1-carboxylic acid]

From patent US12617788B2, “Bridged bicyclic compounds as BTK inhibitors” (Beijing InnoCare Pharma Tech Co., Ltd., priority 2020, dated 2026)
